Assay results reported in US8933089B2, “HIV inhibiting 5-amido substituted pyrimidines” (Janssen R & D Ireland, priority 2006, dated 2015).

What was measured:
[1] = test system: HIV strain L100I + K103N; assay: Cellular anti-HIV assay in MT4 LTR-EGFP cells, mutant L100I + K103N; format: cell-based, HIV-1; conditions: Human immunodeficiency virus 1, 72 h, read-out: L100I + K103N pEC50 (converted)
Procedure: (§1) Because of the increasing emergence of drug resistant HIV strains, the present compounds were tested for their potency against clinically isolated HIV strains harbouring several mutations. These mutations are associated with resistance to reverse transcriptase inhibitors and result in viruses that show various degrees of phenotypic cross-resistance to the currently commercially available drugs such as for instance AZT and delavirdine.
(§2) The antiviral activity of the compound of the present invention has been evaluated in the presence of wild type HIV and HIV mutants bearing mutations at the reverse transcriptase gene. The activity of the compounds is evaluated using a cellular assay which was performed according to the following procedure.
(§3) The human T-cell line MT4 is engineered with Green Fluorescent Protein (GFP) and an HIV-specific promoter, HIV-1 long terminal repeat (LTR). This cell line is designated MT4 LTR-EGFP, and can be used for the in vitro evaluation of anti-HIV activity of investigational compounds. In HIV-1 infected cells, the Tat protein is produced which upregulates the LTR promotor and finally leads to stimulation of the GFP reporter production, allowing to measure ongoing HIV-infection fluorometrically. Analogously, MT4 cells are engineered with GFP and the constitutional cytomegalovirus (CMV) promotor. This cell line is designated MT4 CMV-EGFP, and can be used for the in vitro evaluation of cytotoxicity of investigational compounds. In this cell line, GFP levels are comparably to those of infected MT4 LTR-EGFP cells. Cytotoxic investigational compounds reduce GFP levels of mock-infected MT4 CMV-EGFP cells.
(§4) Effective concentration values such as 50% effective concentration (EC50) can be determined and are usually expressed in μM. An EC50 value is defined as the concentration of test compound that reduces the fluorescence of HIV-infected cells by 50%. The 50% cytotoxic concentration (CC50 in μM) is defined as the concentration of test compound that reduces fluorescence of the mock-infected cells by 50%. The ratio of CC50 to EC50 is defined as the selectivity index (SI) and is an indication of the selectivity of the anti-HIV activity of the inhibitor. The ultimate monitoring of HIV-1 infection and cytotoxicity is done using a scanning microscope. Image analysis allows very sensitive detection of viral infection. Measurements are done before cell necrosis, which usually takes place about five days after infection, in particular measurements are performed three days after infection.
(§5) The columns IIIB, L100I, etc. in the table list the pEC50 values against various strains IIIB, L100I, etc.

[2] = test system: HIV strain Y188L; assay: Cellular anti-HIV assay in MT4 LTR-EGFP cells, mutant Y188L; format: cell-based, HIV-1; conditions: Human immunodeficiency virus 1, read-out: Y188L pEC50 (converted)
Procedure: as §1, §2, §3, §4, §5

[3] = test system: HIV strain IIIB (wild type); assay: Cellular anti-HIV assay in MT4 LTR-EGFP cells, strain IIIB (wild type); selectivity index versus cytotoxicity in mock-infected MT4 CMV-EGFP cells; format: cell-based, HIV-1; conditions: for EC50: Human immunodeficiency virus 1, 72 h, wild type HIV strain IIIB, MT4 LTR-EGFP cells, fluorescence, three days after infection, read-out: IIIB pEC50 (converted); for IIIB pSi: selectivity index = ratio of CC50 (mock-infected MT4 CMV-EGFP cells) to EC50 (IIIB), given as p value
Procedure: as §2, §3, §4, §5
Strain IIIB is wild type HIV strain

[4] = test system: HIV strain Y181C; assay: Cellular anti-HIV assay in MT4 LTR-EGFP cells, mutant Y181C; format: cell-based, HIV-1; conditions: Human immunodeficiency virus 1, read-out: Y181C pEC50 (converted)
Procedure: as §1, §2, §3, §4, §5

[5] = test system: HIV strain K103N + Y181C; assay: Cellular anti-HIV assay in MT4 LTR-EGFP cells, mutant K103N + Y181C; format: cell-based, HIV-1; conditions: Human immunodeficiency virus 1, 72 h, read-out: K103N + Y181C pEC50 (converted)
Procedure: as §1, §2, §3, §4, §5

[6] = test system: HIV strain L100I; assay: Cellular anti-HIV assay in MT4 LTR-EGFP cells, mutant L100I; format: cell-based, HIV-1; conditions: Human immunodeficiency virus 1, read-out: L100I pEC50 (converted)
Procedure: as §1, §2, §3, §4, §5

[7] = test system: HIV strain K103N; assay: Cellular anti-HIV assay in MT4 LTR-EGFP cells, mutant K103N; format: cell-based, HIV-1; conditions: Human immunodeficiency virus 1, read-out: K103N pEC50 (converted)
Procedure: as §1, §2, §3, §4, §5

[8] = test system: HIV strain MDR; assay: Cellular anti-HIV assay in MT4 LTR-EGFP cells, MDR strain; format: cell-based, HIV-1; conditions: Human immunodeficiency virus 1, read-out: MDR pEC50 (converted)
Procedure: as §1, §2, §3, §4, §5
MDR refers to a strain that contains mutations L100I, K103N, Y181C, E138G, V1791, L2214F, V278V/I and A327A/V in HIV reverse transcriptase.

SMILES	melting point [°C]	EC50 [1] [nM]	EC50 [2] [nM]	EC50 [3] [nM]	IIIB pSi [3]	EC50 [4] [nM]	EC50 [5] [nM]	EC50 [6] [nM]	EC50 [7] [nM]	EC50 [8] [nM]
COCCNC(=O)c1cnc(Nc2ccc(C#N)cc2)nc1Nc1c(C)cc(/C=C/C#N)cc1C [Compound 54]	> 250	15.8	10	2.51	>4.00	10	12.6	3.98	2	1000
COc1ccccc1NC(=O)c1cnc(Nc2ccc(C#N)cc2)nc1Nc1c(C)cc(/C=C/C#N)cc1C	> 250	–	–	–	–	–	–	–	–	–
Cc1cc(/C=C/C#N)cc(C)c1Nc1nc(Nc2ccc(C#N)cc2)ncc1C(=O)NCCO [Compound 53]	> 250	25.1	31.6	3.16	>3.90	20	31.6	5.01	6.31	501
CCN(CCO)C(=O)c1cnc(Nc2ccc(C#N)cc2)nc1Nc1c(C)cc(/C=C/C#N)cc1C [Compound 55]	> 222	79.4	63.1	1	4.00	20	100	15.8	3.98	2000
CCOC(=O)CN(C)C(=O)c1cnc(Nc2ccc(C#N)cc2)nc1Nc1c(C)cc(/C=C/C#N)cc1C [Compound 11]	–	50.1	25.1	2	3.40	39.8	79.4	7.94	3.98	1580
Cc1cc(/C=C/C#N)cc(C)c1Nc1nc(Nc2ccc(C#N)cc2)ncc1C(=O)NCc1ccc(N(C)C)cc1 [Compound 30]	–	251	316	12.6	>3.30	100	100	100	15.8	5010
Cc1cc(/C=C/C#N)cc(C)c1Nc1nc(Nc2ccc(C#N)cc2)ncc1C(=O)NCCN1CCCC1 [Compound 51]	–	126	100	3.98	3.00	63.1	63.1	79.4	6.31	2510
Cc1cc(/C=C/C#N)cc(C)c1Nc1nc(Nc2ccc(C#N)cc2)ncc1C(=O)NCC1CC1 [Compound 41]	–	50.1	79.4	5.01	>3.70	15.8	20	7.94	3.98	1580
Cc1cc(/C=C/C#N)cc(C)c1Nc1nc(Nc2ccc(C#N)cc2)ncc1C(=O)NCc1cccs1 [Compound 20]	–	100	50.1	5.01	3.60	39.8	31.6	15.8	5.01	2510
CONC(=O)c1cnc(Nc2ccc(C#N)cc2)nc1Oc1c(C)cc(/C=C/C#N)cc1C [Compound 62]	–	39.8	39.8	1.58	4.00	20	31.6	5.01	2.51	3160
Cc1cc(/C=C/C#N)cc(C)c1Nc1nc(Nc2ccc(C#N)cc2)ncc1C(=O)N1CCOCC1	> 250	–	–	–	–	–	–	–	–	–
Cc1cc(/C=C/C#N)cc(C)c1Nc1nc(Nc2ccc(C#N)cc2)ncc1C(=O)NCc1cccc(Cl)c1 [Compound 25]	–	39.8	50.1	12.6	3.00	79.4	31.6	25.1	15.8	10000
Cc1cc(/C=C/C#N)cc(C)c1Nc1nc(Nc2ccc(C#N)cc2)ncc1C(=O)NCc1ccco1 [Compound 19]	–	50.1	20	3.98	3.60	20	20	3.98	3.98	1000
Cc1cc(/C=C/C#N)cc(C)c1Nc1nc(Nc2ccc(C#N)cc2)ncc1C(=O)N1CCCCC1 [Compound 2]	–	200	398	3.16	>3.90	126	501	63.1	12.6	10000
Cc1cc(/C=C/C#N)cc(C)c1Oc1nc(Nc2ccc(C#N)cc2)ncc1C(=O)NCC#N [Compound 61]	–	50.1	100	3.16	>3.90	20	25.1	20	3.98	3160
COCCCNC(=O)c1cnc(Nc2ccc(C#N)cc2)nc1Nc1c(C)cc(/C=C/C#N)cc1C [Compound 9]	–	25.1	15.8	2.51	>4.00	12.6	20	5.01	3.16	1000
